# According to article PMC8569681, “New Pyrimidine and Pyridine Derivatives as Multitarget Cholinesterase Inhibitors: Design, Synthesis, and In Vitro and In Cellulo Evaluation” (ACS Chemical Neuroscience, 2021):
# Where two headings read alike, the source gives them in different places.
# What was measured:
# Type in all cases: biochemical
# [1] = target: T1, Electrophorus electricus AChE (EeAChE) (Electrophorus electricus, UniProt O42275); test: Percent inhibition of EeAChE, Ellman's spectrophotometric method; details: for inhibition at 90 µM: read-out: % inhibition vs EeAChE ± SD (90 uM), 90 uM; for inhibition at 900 µM: read-out: % inhibition vs EeAChE ± SD (900 uM), 900 uM; for inhibition at 0.9 µM: read-out: % inhibition vs EeAChE ± SD, [I] 900 nM; for inhibition at 0.09 µM: read-out: % inhibition vs EeAChE ± SD, [I] 90 nM
# T1 construct: purchased Sigma-Aldrich (Milan, Italy)
# Description: (§1) All other chemical and biological reagents and solvents used were of the highest analytical, commercially available grade. The water, utilized for the preparation of the phosphate buffer and of the compound solutions, was distilled and filtered on nylon membrane filters with a 0.2 μm pore size with the Millipore Filtration apparatus before each use. Micropipettes Labmate (BRAND Dig. 10–100 μL; Dig. 100–1000 μL; Dig. 0.1–2 μL) and Transferpette (HIGH TECH LAB LM200: 20–200 μL; LM5000: 1000–5000 μL) were used to collect the samples. The assays were carried out by a double beam UV–vis Lambda 40 Perkin Elmer spectrophotometer using optical polystyrene cuvettes (10 × 10 × 45 mm, 340–800 nm optical transparency); each measure was repeated at least in triplicate. […] The spectrophotometric method of Ellman[25] with minor modifications was used to evaluate the inhibition of ChEs. […] EeAChE and eqBChE were periodically tested to evaluate the effective enzymatic activity.
# (§2) For all the synthesized compounds, the percentages of inhibition toward AChE of Electrophorus electricus (EeAChE) and equine BChE (eqBChE) were evaluated.
# Three milliliters of a solution in 0.1 M phosphate buffer (pH = 7.4) containing DTNB (0.25 mM) and EeAChE (0.083 UmL^–1) or eqBChE (0.083 UmL^–1) was placed in a polystyrene cuvette of 1.0 cm path length; 1 μL of a […] With this solution, the blank was made. […] Each experiment was repeated at least in triplicate.
# equine BChE (eqBChE) [2] = target: T2, equine BChE (eqBChE) (Equus caballus, UniProt P81908); test: Percent inhibition of eqBChE, Ellman's spectrophotometric method; details: for inhibition at 0.9 µM: [I] 900 nM; for % inhibition vs eqBChE ± SD (900 uM): 900 nM
# T2 construct: purchased Sigma-Aldrich (Milan, Italy)
# Description: On the synthesized compounds, enzymatic inhibition studies were carried out toward Electrophorus electricus AChE (EeAChE) and equine BChE (eqBChE) according to Ellman’s spectrophotometric method.[25]
# as §1, §2
# Three milliliters of a solution in 0.1 M phosphate buffer (pH = 7.4) containing DTNB (0.25 mM) and EeAChE (0.083 UmL^–1) or eqBChE (0.083 UmL^–1) was placed in a polystyrene cuvette of 1.0 cm path length; 1 μL of a solution in DMSO of the tested compound was added to obtain a cuvette concentration range of 9–0.09 μM. With this solution, the blank was made. […] Each experiment was repeated at least in triplicate.
# equine BChE (eqBChE) [3] = target: T2, equine BChE (eqBChE); test: Inhibition constant and mechanism vs eqBChE, Dixon's method; details: for inhibition mechanism on eqBChE: Dixon's plot, best fitting model; for α, eqBChE: mixed inhibition, α > 1 free enzyme, α < 1 enzyme–substrate complex; for Ki: three substrate and five inhibitor concentrations, read-out: Ki ± SD, eqBChE
# Description: . The recorded data were analyzed with the enzyme kinetic module of SigmaPlot to find the best fitting model of inhibition using the linear regression analysis. The reference kinetic models used in the regression analysis were competitive, noncompetitive, uncompetitive, and mixed. Each determination was repeated five times, and incorrect values were discarded to reduce the standard deviation within the limit of 5%. In this way, the regression lines obtained have a linear regression coefficient (R^2) higher than 0.95. Dixon’s plots of all tested compounds are reported in the Supporting Information (Figures S1–S12).
# 18, 22, 25, 26, 28, and 30 toward eqBChE). For each compound, a 500 μM stock solution was prepared in H2O/DMSO or in 10^–2 M HCl and diluted in water to prepare solutions of opportune concentrations to introduce in the cuvette volumes ranging from 30 to 100 μL, to obtain the desired final concentrations. The maximum amount of DMSO used for the preparation of the stock solution was calculated to have a DMSO content in cuvette <0.033%.
# Three milliliters of 0.1 M phosphate buffer (pH = 7.4) containing DTNB (0.25 mM) and EeAChE (0.083 UmL^–1) or eqBChE (0.083 UmL^–1) was mixed with the opportune volume of the inhibitor solution to obtain a final inhibitor concentration in cuvette between 90 and 1800 nM. With this solution, the blank was made. […]. The absorbance variations were measured at 412 nm at 25 °C between 0.5 and 1.5 min.
# To determine the inhibition constants (Ki) and the inhibition mechanisms, the rates of hydrolysis at three different concentrations of substrate in the presence of five different concentrations of inhibitor were measured.
# [4] = read-out: % inhibition vs EeAChE ± SD (9 uM), 9 uM, supplement csv
# [5] = 0.0833 U/mL enzyme, 100 μM acetylthiocholine
# [6] = read-out: % inhibition vs EeAChE ± SD, [I] 9 μM, 0.0833 U/mL enzyme, 100 μM acetylthiocholine
# [7] = 0.0833 U/mL enzyme, 100 μM acetylthiocholine, read-out: % inhibition vs eqBChE ± SD
# [8] = [I] 9 μM, 0.0833 U/mL enzyme, 100 μM acetylthiocholine, read-out: % inhibition vs eqBChE ± SD
# [9] = read-out: % inhibition vs eqBChE ± SD (9 uM), 9 uM, supplement csv
# T2 sequence (P81908 whole entry): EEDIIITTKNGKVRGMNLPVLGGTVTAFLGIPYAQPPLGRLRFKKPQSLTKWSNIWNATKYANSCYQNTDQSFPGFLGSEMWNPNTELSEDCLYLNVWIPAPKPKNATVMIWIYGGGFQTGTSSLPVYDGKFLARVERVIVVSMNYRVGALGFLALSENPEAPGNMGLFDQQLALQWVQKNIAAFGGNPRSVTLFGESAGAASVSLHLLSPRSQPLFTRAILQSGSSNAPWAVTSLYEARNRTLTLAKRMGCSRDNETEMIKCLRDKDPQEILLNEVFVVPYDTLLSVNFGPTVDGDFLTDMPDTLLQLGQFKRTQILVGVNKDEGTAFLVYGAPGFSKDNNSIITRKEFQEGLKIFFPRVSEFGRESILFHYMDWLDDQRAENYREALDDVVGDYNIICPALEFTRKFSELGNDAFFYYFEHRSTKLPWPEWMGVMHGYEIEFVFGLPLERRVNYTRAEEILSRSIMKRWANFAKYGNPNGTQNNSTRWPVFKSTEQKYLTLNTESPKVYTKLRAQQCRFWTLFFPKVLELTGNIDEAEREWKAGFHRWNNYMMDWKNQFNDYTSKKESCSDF
# T1 sequence (O42275 24-633): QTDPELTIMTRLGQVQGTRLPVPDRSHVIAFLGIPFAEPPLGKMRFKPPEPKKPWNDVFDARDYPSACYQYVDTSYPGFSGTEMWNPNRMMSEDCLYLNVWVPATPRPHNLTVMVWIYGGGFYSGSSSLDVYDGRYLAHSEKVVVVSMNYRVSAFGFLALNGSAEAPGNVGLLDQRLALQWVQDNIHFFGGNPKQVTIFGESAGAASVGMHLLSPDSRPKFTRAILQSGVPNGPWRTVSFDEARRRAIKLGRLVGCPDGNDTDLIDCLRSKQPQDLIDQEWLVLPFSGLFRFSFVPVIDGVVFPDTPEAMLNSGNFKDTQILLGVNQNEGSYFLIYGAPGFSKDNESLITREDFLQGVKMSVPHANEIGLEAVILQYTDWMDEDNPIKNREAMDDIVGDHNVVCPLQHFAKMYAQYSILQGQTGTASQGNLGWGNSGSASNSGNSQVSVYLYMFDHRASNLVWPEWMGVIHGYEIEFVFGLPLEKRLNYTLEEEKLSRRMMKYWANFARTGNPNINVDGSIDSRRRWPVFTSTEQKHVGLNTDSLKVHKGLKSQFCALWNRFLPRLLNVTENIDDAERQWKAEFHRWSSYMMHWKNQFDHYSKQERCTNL
SMILES,"inhibition at 9 µM [1, 4] [%]",inhibition at 90 µM ([1]; supplement csv) [%],inhibition at 900 µM ([1]; supplement csv) [%],"inhibition at 0.9 µM [1, 5] [%]","inhibition at 9 µM [1, 6] [%]",inhibition at 0.9 µM (equine BChE (eqBChE) [2]; [7]) [%],inhibition at 9 µM (equine BChE (eqBChE) [2]; [8]) [%],inhibition at 9 µM (equine BChE (eqBChE) [2]; [9]) [%],inhibition mechanism on eqBChE (equine BChE (eqBChE) [3]),"α, eqBChE (equine BChE (eqBChE) [3])",Ki (equine BChE (eqBChE) [3]) [nM],% inhibition vs eqBChE ± SD (900 uM) (equine BChE (eqBChE) [2]; supplement csv) [%],"inhibition at 0.09 µM (equine BChE (eqBChE) [2]; [I] 90 nM, 0.0833 U/mL enzyme, 100 μM acetylthiocholine, read-out: % inhibition vs eqBChE ± SD) [%]","inhibition at 0.09 µM [1, 5] [%]","% inhibition vs eqBChE ± SD (equine BChE (eqBChE) [2]; [I] 9 μM, 0.0833 U/mL enzyme, 100 μM acetylthiocholine) [%]"
"c1ccc(CNCCCCCCNc2ccccn2)cc1 [Compound 25, N^1-Benzyl-N^6-(pyridin-2-yl)hexane-1,6-diamine]",73.3 ± 0.1,71.6 ± 2.1,23.1 ± 5.7,23.1 ± 5.7,73,16.6 ± 6.3,71.6 ± 2.1,16.6 ± 6.3,mixed,2.2,2370 ± 304,,,,
"Brc1ccc(CNCCCCCCNc2ccccn2)cc1 [Compound 26, N^1-(4-Bromobenzyl)-N^6-(pyridin-2-yl)hexane-1,6-diamine]",23.5 ± 2.2,76.8 ± 0.5,,,24 to 30,17 ± 2.7,76.8 ± 0.5,17 ± 2.7,mixed,0.5,3460 ± 1480,,,,
"COc1cc(CNCCCCCCNc2ccccn2)ccc1O [Compound 30, 2-Methoxy-4-(((6-(pyridin-2-ylamino)hexyl)amino)methyl)phenol]",61.8 ± 1.9,90.9 ± 0.6,17.3 ± 0.6,17.3 ± 0.6,~60,51,91,51.2 ± 3.1,mixed,1.4,1100 ± 189,15.6 ± 6.1,15.6 ± 6.1,,
"c1ccc(CNCCCCCNc2ccccn2)cc1 [Compound 23, N^1-Benzyl-N^5-(pyridin-2-yl)pentane-1,5-diamine]",53.5 ± 1.4,56.5 ± 3,10.3 ± 0.8,10.3 ± 0.8,53.5 ± 1.4,5 ± 5.8,56.5 ± 3,5 ± 5.8,,,,,,,
"c1ccc(CNCCCCCCNc2ncccn2)cc1 [Compound 13, N^1-Benzyl-N^6-(pyrimidin-2-yl)hexane-1,6-diamine]",92.9 ± 0.4,19.2 ± 1.4,60.3 ± 1.5,,~90,,26 ± 3.5,26 ± 3.5,,,,,,19.2 ± 1.4,
"COc1ccccc1CNCCCCCCNc1ccccn1 [Compound 28, N^1-(2-Methoxybenzyl)-N^6-(pyridin-2-yl)hexane-1,6-diamine]",58.6 ± 1.1,74.3 ± 1.4,9 ± 1.6,9 ± 1.6,~60,24.2 ± 3.3,74.3 ± 1.4,24.2 ± 3.3,mixed,0.8,3430 ± 701,,,,
"c1cnc(NCCCCCCNCc2c[nH]c3ccccc23)nc1 [Compound 22, N^1-((1H-Indol-3-yl)methyl)-N^6-(pyrimidin-2-yl)hexane-1,6-diamine]",69.2 ± 1.4,,16.4 ± 1.9,16.4 ± 1.9,60 to 70,65,94,94 ± 0.7,mixed,10,99 ± 71,65.1 ± 3.8,,,94.0 ± 0.7
"Oc1cccc(CNCCCCCCNc2ncccn2)c1 [Compound 19, 3-(((6-(Pyrimidin-2-ylamino)hexyl)amino)methyl)phenol]",84.4 ± 0.3,,39 ± 1.9,40 to 60,~90,,26.6 ± 3.9,26.6 ± 3.9,,,,,,,
"Oc1cccc(CNCCCCCCNc2ncccn2)c1O [Compound 20, 3-(((6-(Pyrimidin-2-ylamino)hexyl)amino)methyl)benzene-1,2-diol]",90.5 ± 0.5,12.8 ± 1.9,53.6 ± 3.1,40 to 60,~90,,17.1 ± 1.6,17.1 ± 1.6,,,,,,12.8 ± 1.9,
"c1ccc(CNCCCCCNc2ncccn2)cc1 [Compound 9, N^1-Benzyl-N^5-(pyrimidin-2-yl)pentane-1,5-diamine]",90.2 ± 0.7,14.1 ± 1.4,57.1 ± 0.9,40 to 60,~90,,17.4 ± 2.7,17.4 ± 2.7,,,,,,14.1 ± 1.4,
"COc1cc(CNCCCCCCNc2ncccn2)ccc1O [Compound 18, 2-Methoxy-4-(((6-(pyrimidin-2-ylamino)hexyl)amino)methyl)phenol]",59.5 ± 3.6,,14.7 ± 0.5,14.7 ± 0.5,60 to 70,44,84,84.4 ± 0.8,mixed,7.3,3030 ± 604,44.2 ± 6.4,,,
